Experimental data: patent US20170226139A1, “CRYSTALLINE SALTS OF (Z)-O-OCTADEC-9-EN-1-YL O,O-DIHYDROGEN PHOSPHOROTHIOATE” (priority 2013, published 2017)

Experiment: Rx100 salt screening (solid formation, XRPD wet/dry, filterability, exposure to RH > 90%)
Description: We designed a complex and unconventional screening regime to screen for Rx100 crystalline salts. […] The screening regime is described as follows.
Rx100.FA in the form of a viscous liquid and eighteen counter ions were used as starting materials. These counter ions are listed and numbered in Table 4. The numbers will be used for grouping the resulting solids. The screening was performed in three stages.
Stage one (1) included screening 11 counter ions: sodium hydroxide, ammonium hydroxide, ethylenediamine, diethylamine, tromethamine (Tris), hydroxyethyl morpholine, benzathine, dimethylamino ethanol, L-Arginine, L-Lysine, L-Histidine. […] In stage 1, we performed three rounds of experiment.
In the first round of experiment, four (4) solvent systems, i.e., isopropyl alcohol (IPA), diethyl ether (DEE), IPA:water (a mixture at a volume ratio of 95:5) and tetrahydrofuran (THF), were used. Thus in this first round of screening, 44 individual base-acid reactions were conducted in 44 vials.
First, Rx100.FA and each of the bases were mixed in a vial. […] In each of the 44 vials, 211.1 μL of the prepared liquid, which was equivalent to about 35 mg of Rx100.FA, was first dispensed. Then, one equivalent (molar) of each of the 11 bases was dispensed in its corresponding vial. For example, the base sodium hydroxide was added to vials 1, 12, 23 and 34. Similarly, L-histidine was added to vials 11, 22, 33 and 44. Observations were recorded upon addition of the bases in to Rx100.FA.
Second, the solvent in each mixture was depleted. All vials containing the mixtures of Rx100.FA and each of the bases were left under moderate vacuum and nitrogen bleed at room temperature overnight to evaporate the solvent. The vials were then kept under full vacuum for about an hour to make sure the solvents (ethanol and water) are evaporated. Observations on formation of solid upon evaporation were recorded.
Third, solvents were added in each vial to induce solid formation. In each vial, a stir bar and one of the four selected solvents (each 5 volumes with respect to the Rx100.FA) were added. The vials were then capped. IPA was added to the first set of 11 vials (1-11), DEE added to the second set of 11 vials (12-22), IPA:water added to the third set of 11 vials (23-33), and THF added to the fourth set of 11 vials (34-44). The vials were left at room temperature while stirring for at least 5 hours. Observations were recorded.
The first set of XRPD analyses were recorded as “wet” samples. The solids were dried under vacuum for 1 hour and at room temperature followed by XRPD as “dry” sample. The dry solid was then exposed to relative humidity of more than 90% overnight followed by XRPD analysis. For XRPD naming, a number and a letter were used. The number refers to the counter ion and the letter refers to the chronological discovered XRPD pattern of that particular salt.
In the second round of experiment of stage one, another four (4) solvent systems, i.e., methanol (MeOH), tert-Butyl methyl ether (tBME), ethyl acetate and toluene, were used in the same 44 vials as used in the first round experiment. The solvents in all 44 vials from the first round were evaporated to dryness under vacuum and nitrogen bleed. The 4 new solvents were then added into the vials. Methanol was added to the first set of 11 vials (1-11), tBME added to the second set of 11 vials (12-22), Ethyl acetate added to the third set of 11 vials (23-33), and Toluene added to the fourth set of 11 vials (34-44). The same procedure as in the first round of experiment was followed for these new solvents and samples were taken for XRPD analysis.
In the third round of experiment, effect of base equivalence was assessed. […] After addition of the extra base, the previous solvent was evaporated and new solvents added.

For `CCCCCCCC/C=C\CCCCCCCCOP(O)(O)=S` [Rx100.L-Lysine, (Z)—O-octadec-9-en-1-yl O,O-dihydrogen phosphorothioate], the “Stability at high humidity” value was “stable at high humidity”, the Crystallinity (Rx100 salt formed with the named base, XRPD, listed as Rx100.L-Lysine salt) was “showed crystallinity” and the Filterability (Rx100 salt formed with the named base, listed as Rx100.L-Lysine salt) was “filterable”.
